Tested on: L-lysine-producing bacterium, WC196 LC/pCABD2 strain
Assay: L-lysine production culture in small fermentation tank with addition of thiourea or urea to the medium
Format: cell-based, Escherichia coli
Method: The glycerol stock of the L-lysine-producing bacterium, WC196 LC/pCABD2 strain, was inoculated in an amount of one loop to the LB agar medium (1% of tryptone, 0.5% of yeast extract, 0.5% of sodium chloride, 1.5% of agarose) containing 20 mg/L of streptomycin, and cultured at 37° C. for 24 hours as static culture.
The cells grown in the aforementioned preculture were scraped off from the medium, suspended in a 0.85% NaCl aqueous solution, and inoculated into 300 mL of MS glucose liquid fermentation medium or MS fatty acid liquid fermentation medium having the following compositions and contained in a small fermentation tank having a total volume of 1 L at a turbidity of 0.04 measured at a wavelength of 600 nm to start the culture. With the MS glucose liquid fermentation medium, the culture was performed at a culture temperature of 37° C. and a stirring rate of 300 rpm for 16 hours with the addition of 20 mg/L of streptomycin and aeration of compressed air sterilized with a sterilization filter at 1 vvm. Furthermore, pH was maintained at 6.7 with ammonia gas. With the MS fatty acid liquid fermentation medium, the culture was performed at a culture temperature of 37° C. and a stirring rate of 700 rpm for 42 hours with addition of 20 mg/L of streptomycin and aeration of compressed air sterilized with a sterilization filter at 1 vvm. Furthermore, pH was maintained at 6.7 with ammonia gas.
The culture was performed with adding 1 mM or 5 mM thiourea as an antioxidant at the time of the start of the culture. As controls, the culture was performed under a condition in which thiourea was not added (referred to as a thiourea-free condition), and a condition in which urea was added at the same concentrations as thiourea (referred to as a urea addition condition).
During the culture, an appropriate volume of each liquid medium was sampled, and the amount of L-lysine in the culture supernatant was measured with a Biotech Analyzer AS310 (Sakura SI). Complete consumption of the oleate added to the medium was confirmed by using a gas chromatograph GC-2014 (Shimadzu). Complete consumption of the glucose added to the medium was separately confirmed by using a Biotech Analyzer AS310. Furthermore, a Tween 80 solution was added at a final concentration of 1.0% (v/v) immediately after the end of the culture, the resultant was appropriately diluted, and turbidity was measured at a wavelength of 600 nm to measure cell amount at the time of the end of the culture.

[1] = carbon source fatty acid (sodium oleate), additive 1 mM
[2] = carbon source fatty acid (sodium oleate), additive 5 mM
[3] = carbon source glucose, additive 1 mM
[4] = carbon source glucose, additive 5 mM

Row | SMILES | Culture time required for consumption of carbon source [1] | L-Lysine accumulation at the end of culture [1] | OD600 at the end of culture [1] | Culture time required for consumption of carbon source [2] | L-Lysine accumulation at the end of culture [2] | OD600 at the end of culture [2] | Culture time required for consumption of carbon source [3] | L-Lysine accumulation at the end of culture [3] | OD600 at the end of culture [3] | Culture time required for consumption of carbon source [4] | L-Lysine accumulation at the end of culture [4] | OD600 at the end of culture [4]
1 | NC(N)=O [Urea, urea] | 41.5 h | 4.8 g/L | 6.8 | 41.5 h | 4.8 g/L | 6.9 | 16.0 h | 4.6 g/L | 5.2 | 16.0 h | 4.6 g/L | 5.2
2 | NC(N)=S [Thiourea, thiourea] | 33.0 h | 5.2 g/L | 7.3 | 33.0 h | 5.2 g/L | 7.5 | 16.0 h | 4.7 g/L | 5.3 | 16.0 h | 4.7 g/L | 5.2
